Legend:
Assay type in all cases: cell-based
[1] = system: M. smegmatis fbpA mutant; conditions: mutant compared with wild type
[2] = system: M. tuberculosis; experiment: Alamar blue MIC with efflux pump inhibitors reserpine and verapamil; conditions: reserpine or verapamil at 20 or 40 μg/ml
[3] = system: M. tuberculosis; experiment: Alamar blue MIC with cell wall weakening agent ethambutol at 0.5 MIC

In the case of CC[C@H]1OC(=O)[C@H](C)[C@@H](O[C@H]2C[C@@](C)(OC)[C@@H](O)[C@H](C)O2)[C@H](C)[C@@H](O[C@@H]2O[C@H](C)C[C@H](N(C)C)[C@H]2O)[C@](C)(O)C[C@@H](C)C(=O)[C@H](C)[C@@H](O)[C@]1(C)O [erythromycin], the “Improvement of MIC in M. smegmatis fbpA mutant” value (from here on “Improvement of MIC”) [1] is reported as 8 fold.

CC[C@@H](CO)NCCN[C@@H](CC)CO [ethambutol] was tested, and the “Improvement of MIC” value [1] was “not improved”.

With CC[n+]1c(-c2ccccc2)c2cc(N)ccc2c2ccc(N)cc21 [ethidium bromide] the “Decrease of MIC with efflux pump inhibitor” value [2] was 4 fold.

CO[C@H]1/C=C/O[C@@]2(C)Oc3c(C)c(O)c4c(O)c(c(/C=N/N5CCN(C)CC5)c(O)c4c3C2=O)NC(=O)/C(C)=C\C=C\[C@H](C)[C@H](O)[C@@H](C)[C@@H](O)[C@@H](C)[C@H](OC(C)=O)[C@@H]1C [rifampicin] was tested, and the “Reduction of MIC in the presence of sub-inhibitory ethambutol” value [3] was 4 fold.

With [H]/N=C(/N)N[C@H]1[C@H](O)[C@@H](O)[C@H](O[C@@H]2O[C@@H](C)[C@](O)(C=O)[C@H]2O[C@@H]2O[C@@H](CO)[C@H](O)[C@@H](O)[C@@H]2NC)[C@@H](N/C(N)=N\[H])[C@@H]1O [streptomycin] the “Improvement of MIC” value [1] was “not improved”.

CN[C@H](CC(C)C)C(=O)N[C@H]1C(=O)N[C@@H](CC(N)=O)C(=O)N[C@H]2C(=O)N[C@H]3C(=O)N[C@H](C(=O)N[C@H](C(=O)O)c4cc(O)cc(O)c4-c4cc3ccc4O)[C@H](O)c3ccc(c(Cl)c3)Oc3cc2cc(c3O[C@@H]2O[C@H](CO)[C@@H](O)[C@H](O)[C@H]2O[C@H]2C[C@](C)(N)[C@H](O)[C@H](C)O2)Oc2ccc(cc2Cl)[C@H]1O [vancomycin] was tested, and the “Improvement of MIC” value [1] was 16 fold.

From article PMC3158675, “Effective inhibitors of the essential kinase PknB and their potential as anti-mycobacterial agents” (Tuberculosis (Edinburgh, Scotland), 2011)
